Experimental data published in patent publication US4835190A, “Phenolic thioethers as inhbitors of 5-lipoxygenase” (G. D. Searle & Co., priority 1987, dated 1989).

Columns and labels:
5-lipoxygenase = target: T1, 5-lipoxygenase (Rattus norvegicus, UniProt P12527); test: Inhibition of 5-lipoxygenase, in vitro (5-HETE synthesis, RBL-1 homogenate supernatant); type: biochemical; conditions: RBL-1 100,000×g supernatant, [1-14C]-arachidonic acid and Ca++, 5-HETE by TLC; initial screen 1×10^-4 M
T1 construct: supernatant fraction of Rat Basophilic Leukemia Cell Homogenate (RBL-1) serves as a 5-lipoxygenase enzyme source; endogenous in cells; host or cells: RBL-1 (rat basophilic leukemia) cells, 100,000×g supernatant of homogenate
T1 sequence (P12527 1-673): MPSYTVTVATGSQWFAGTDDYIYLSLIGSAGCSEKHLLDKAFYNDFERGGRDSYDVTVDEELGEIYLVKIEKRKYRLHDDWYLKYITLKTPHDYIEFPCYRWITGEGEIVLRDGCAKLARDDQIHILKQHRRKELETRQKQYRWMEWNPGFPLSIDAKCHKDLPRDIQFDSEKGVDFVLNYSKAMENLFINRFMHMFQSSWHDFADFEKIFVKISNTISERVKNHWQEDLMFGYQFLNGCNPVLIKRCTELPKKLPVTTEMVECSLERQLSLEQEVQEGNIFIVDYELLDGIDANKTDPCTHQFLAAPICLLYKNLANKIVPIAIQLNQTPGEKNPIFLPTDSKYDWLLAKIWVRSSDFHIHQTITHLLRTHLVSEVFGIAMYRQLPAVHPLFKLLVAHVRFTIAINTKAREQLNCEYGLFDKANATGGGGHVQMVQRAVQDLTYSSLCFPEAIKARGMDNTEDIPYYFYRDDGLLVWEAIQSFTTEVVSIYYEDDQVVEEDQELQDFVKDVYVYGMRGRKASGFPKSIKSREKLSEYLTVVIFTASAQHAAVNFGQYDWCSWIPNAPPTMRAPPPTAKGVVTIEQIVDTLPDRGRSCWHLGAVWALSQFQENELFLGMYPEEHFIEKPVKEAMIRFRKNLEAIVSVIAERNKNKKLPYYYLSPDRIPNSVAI
Description: The compounds of the invention are evaluated with respect to 5-lipoxygenaseinhibition according to the following assay procedure.
Inhibition of 5-lipoxygenase, in vitro: anti-inflammatory, anti-allergy activities. The 100,000×g supernatant fraction of Rat Basophilic Leukemia Cell Homogenate (RBL-1) serves as a 5-lipoxygenase enzyme source. The enzyme is incubated with [1-^14 C)-arachidonic acid and Ca++ in the presence and absence of test compound. The product of 5-lipoxygenase, 5-hydroxyeicosatetraenoic acid (5-HETE), is separated by thin-layer chromatography and measured by radioactivity. A compound inhibiting 5-HETE synthesis by 30% or more is considered active at that concentration.

[1] = versus histamine; cited from earlier work

IC50 (5-lipoxygenase) [µM]	Compound	also measured
1.2	CCCCCSc1cc(C(C)(C)C)c(O)c(C(C)(C)C)c1 [Example 3, 2,6-bis(1,1-dimethylethyl)-4-(pentylthio)phenol]	–
1.3	CC(C)Sc1cc(C(C)(C)C)c(O)c(C(C)(C)C)c1 [Example 4, 2,6-bis(1,1-dimethylethyl)-4-[(1-methylethyl)thio]-phenol]	–
0.58	CSc1cc(C(C)(C)C)c(O)c(C(C)(C)C)c1 [Example 5, 2,6-bis(1,1-dimethylethyl)-4-(methylthio)phenol]	–
100	C[S+]([O-])c1cc(C(C)(C)C)c(O)c(C(C)(C)C)c1 (centres unmarked) [Example 6, 2,6-bis(1,1-dimethylethyl)-4-(methylsulfinyl)phenol]	–
–	CC(C)(C)c1cc(S(C)(=O)=O)cc(C(C)(C)C)c1O [Example 7, 2,6-bis(1,1-dimethylethyl)-4-(methylsulfonyl)phenol]	5-Lipoxygenase Inhibition, in vitro, IC50 (5-lipoxygenase): Inactive
100	COc1c(C(C)(C)C)cc(SC)cc1C(C)(C)C [Example 8, 2,6-bis(1,1-dimethylethyl)-1-methoxy-4-(methylthio)benzene]	–
11	CSc1c(O)c(C(C)(C)C)cc(C(C)(C)C)c1O [Example 9, 4,6-bis(1,1-dimethylethyl)-2-(methylthio)-1,3-benzenediol]	–
–	CCCCC/C=C\C\C=C/C=C/C=C/[C@@H](SC[C@H](NC(=O)CC[C@H](N)C(=O)O)C(=O)NCC(=O)O)[C@@H](O)CCCC(=O)O [LTC4]	potency relative to histamine in causing long lasting bronchoconstricting effects [1]: at least 100 times
